Experiment [1] in a line: inhibition of PEG-3 promoter-driven reporter – cell-based, HeLa, luciferase, CREF/GAPDH counter-screen panel, dose response (AID 624167). Conditions: CREF/GAPDH counter-screens; GAPDH; mean of runs. A general note: The purpose of a counterscreen is to sort out artefacts and off-target activity.
For the next experiment, the system named is GAPDH. Described as above. The note with it: CREF/GAPDH counter-screens.
For experiment [2], the target named is PEG-3 (UniProt Q6IN02). The description is as above. The note with it: HeLa PEG-Prom luciferase reporter, overnight, CREF/GAPDH counter-screens, mean of runs. In general terms: A reporter such as luciferase makes a cellular process visible.
Chain of PEG-3 (UniProt Q6IN02) (Q6IN02 whole entry, looked up): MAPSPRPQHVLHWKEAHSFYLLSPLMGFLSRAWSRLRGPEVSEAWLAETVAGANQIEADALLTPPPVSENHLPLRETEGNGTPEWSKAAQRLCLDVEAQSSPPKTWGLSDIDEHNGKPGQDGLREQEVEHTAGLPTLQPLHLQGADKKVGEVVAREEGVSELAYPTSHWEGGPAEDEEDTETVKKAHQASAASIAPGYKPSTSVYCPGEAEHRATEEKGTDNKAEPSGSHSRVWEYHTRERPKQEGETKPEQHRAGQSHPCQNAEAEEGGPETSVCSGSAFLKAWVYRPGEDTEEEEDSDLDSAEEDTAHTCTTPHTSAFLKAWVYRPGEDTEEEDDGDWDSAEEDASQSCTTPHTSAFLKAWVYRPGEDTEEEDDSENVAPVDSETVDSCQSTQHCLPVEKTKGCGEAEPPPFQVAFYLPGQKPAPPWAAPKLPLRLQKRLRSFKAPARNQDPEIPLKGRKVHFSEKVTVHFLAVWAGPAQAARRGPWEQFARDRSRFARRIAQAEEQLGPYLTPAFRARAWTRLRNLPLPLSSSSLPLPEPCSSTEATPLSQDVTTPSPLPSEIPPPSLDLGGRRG
The subject of experiment [3] is PEG-3. The experiment is described as above. The note with it: HeLa PEG-Prom luciferase reporter, overnight, CREF/GAPDH counter-screens.
The subject of the next experiment is Rat fibroblasts (CREF). The description is as above. Conditions: CREF/GAPDH counter-screens.
[4] abbreviates: run 1, dose range 1, individual replicate IC50 per panel.
Where [5] appears, read: run 2, dose range 1, individual replicate IC50 per panel.

The source made the active and inactive calls.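 Rule for the calls: active = mean IC50 for reducing PEG3 promoter reporter signal at or below a set limit, with IC50 above the limit in both counter screens; inactive = the rest, including counter screen hits.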

Results on eleven molecules are retold here after PubChem BioAssay AID624167 (Sanford-Burnham Center for Chemical Genomics, 2012).

By IC50 is commonly meant the concentration at which inhibition is half-maximal. For `Cc1cccc(OCC(=O)NCC(=O)N/N=C/c2cc(Br)cc(Br)c2O)c1`, the IC50 in experiment [1] was > 100 µM (inactive); with GAPDH (setting [4]) it was more than 100 µM; with GAPDH (setting [5]), more than 100 µM; on PEG-3 [2], 7.91 µM; with PEG-3 [3] (setting [4]), 9.95 µM; in the experiment with PEG-3 [3] (setting [5]), 5.87 µM. For the same molecule, the figures for the IC50 in the experiment with Rat fibroblasts (CREF) (mean of runs), with Rat fibroblasts (CREF) (setting [4]) and in the experiment on Rat fibroblasts (CREF) (setting [5]) were 47.1 µM, 42.2 µM and 52 µM, respectively.
As for `COCCCNC(=O)c1ccc(Cn2c(=O)c3ccccc3n(Cc3ccccc3C#N)c2=O)cc1`, the IC50 in experiment [1] was > 100 µM (inactive); with GAPDH (setting [4]), more than 100 µM; with GAPDH (setting [5]), more than 100 µM; at PEG-3 [2], 4.18 µM; in the experiment with PEG-3 [3] (setting [4]), 4.1 µM; with PEG-3 [3] (setting [5]), 4.27 µM. Also, the IC50 with Rat fibroblasts (CREF) (mean of runs) was > 100 µM (inactive); in the experiment on Rat fibroblasts (CREF) (setting [4]), more than 100 µM; in the experiment on Rat fibroblasts (CREF) (setting [5]) it was more than 100 µM.
For `NC(C(=O)O)C1ON=C(Cl)C1O` (centres undefined), the IC50 was 2.86 µM in experiment [1]; 0.927 µM with GAPDH (setting [4]); 4.8 µM with GAPDH (setting [5]); 0.703 µM at PEG-3 [2]; 0.639 µM in the experiment on PEG-3 [3] (setting [4]); 0.767 µM with PEG-3 [3] (setting [5]). The IC50 is > 100 µM (inactive) in the experiment with Rat fibroblasts (CREF) (mean of runs), more than 100 µM with Rat fibroblasts (CREF) (setting [4]) and more than 100 µM with Rat fibroblasts (CREF) (setting [5]).
As to `CC(/C=C/c1ccccc1)=N/NC(=O)c1cc([N+](=O)[O-])cc([N+](=O)[O-])c1`, the IC50 entry (in experiment [1]; at PEG-3 [2]) was “inactive” in each case. For the same molecule, the IC50 in the experiment with GAPDH (setting [4]) was more than 100 µM; in the experiment with GAPDH (setting [5]), 9.02 µM; in the experiment with PEG-3 [3] (setting [4]), more than 100 µM; in the experiment on PEG-3 [3] (setting [5]), 3.58 µM; in the experiment with Rat fibroblasts (CREF) (mean of runs), 57.3 µM (inactive); in the experiment with Rat fibroblasts (CREF) (setting [4]) it was 14.5 µM. Also, the IC50 with Rat fibroblasts (CREF) (setting [5]) was more than 100 µM.
Regarding `CC(=O)c1sc2c(c1OC(=O)c1ccc(Cl)cc1Cl)c(=O)n(-c1ccccc1)c(=S)n2-c1ccccc1`, the IC50 in experiment [1] was 4.7 µM; in the experiment with GAPDH (setting [4]) it was 2.85 µM; with GAPDH (setting [5]) it was 6.56 µM; at PEG-3 [2] it was 10.2 µM; with PEG-3 [3] (setting [4]), 11.2 µM; with PEG-3 [3] (setting [5]), 9.26 µM. In addition, the IC50 in the experiment with Rat fibroblasts (CREF) (mean of runs) is > 100 µM (inactive); in the experiment with Rat fibroblasts (CREF) (setting [4]), more than 100 µM; in the experiment with Rat fibroblasts (CREF) (setting [5]), more than 100 µM.
Consider `COc1ccc(-n2c(O)c(/C=N/Nc3nc(C)cc(C)n3)c3ccccc3c2=O)cc1OC`, for which the IC50 was > 100 µM (inactive) in experiment [1]; more than 100 µM in the experiment with GAPDH (setting [4]); more than 100 µM in the experiment on GAPDH (setting [5]); 4.99 µM at PEG-3 [2]; 2.71 µM with PEG-3 [3] (setting [4]); 7.28 µM in the experiment on PEG-3 [3] (setting [5]). Further, the IC50 was 50.9 µM (inactive) in the experiment on Rat fibroblasts (CREF) (mean of runs), 44.5 µM in the experiment on Rat fibroblasts (CREF) (setting [4]) and 57.3 µM with Rat fibroblasts (CREF) (setting [5]).
For `CCSc1nc2ccccc2n1C(=O)/C=C\c1ccc(OC)c(OC)c1`, the IC50 in experiment [1] was 14.6 µM; in the experiment with GAPDH (setting [4]), 14.2 µM; with GAPDH (setting [5]) it was 15 µM; on PEG-3 [2], 5.47 µM; with PEG-3 [3] (setting [4]), 4.86 µM; in the experiment on PEG-3 [3] (setting [5]) it was 6.08 µM. The IC50 in the experiment with Rat fibroblasts (CREF) (mean of runs) is 72.8 µM (inactive); in the experiment with Rat fibroblasts (CREF) (setting [4]) it was 45.7 µM; in the experiment on Rat fibroblasts (CREF) (setting [5]), more than 100 µM.
On to `COc1cc(Nc2c3ccccc3nc3ccccc23)cc(OC)c1OC`, for which the IC50 result in experiment [1] is “inactive”. For the same molecule, the IC50 with GAPDH (setting [4]) was 33.2 µM; in the experiment with GAPDH (setting [5]), 35 µM; at PEG-3 [2] it was 8.07 µM; in the experiment with PEG-3 [3] (setting [4]), 8.96 µM; in the experiment on PEG-3 [3] (setting [5]), 7.19 µM; with Rat fibroblasts (CREF) (mean of runs) it was 36.2 µM. The IC50 in the experiment with Rat fibroblasts (CREF) (setting [4]) came to 26.9 µM; in the experiment with Rat fibroblasts (CREF) (setting [5]), 45.5 µM.
Take `O=C(NNC(=O)c1cccnc1SCc1cccc([N+](=O)[O-])c1)c1ccccn1`: the IC50 in experiment [1] is > 100 µM (inactive); with GAPDH (setting [4]) it was more than 100 µM; with GAPDH (setting [5]), more than 100 µM; on PEG-3 [2] it was 3.6 µM; in the experiment on PEG-3 [3] (setting [4]), 2.76 µM; in the experiment on PEG-3 [3] (setting [5]), 4.45 µM. For the same molecule, the values for the IC50 in the experiment with Rat fibroblasts (CREF) (mean of runs), in the experiment on Rat fibroblasts (CREF) (setting [4]) and in the experiment with Rat fibroblasts (CREF) (setting [5]) were 31.4 µM, 5.66 µM and 57.1 µM, respectively.
With `O=C(N/N=C/c1sc(N2CCOCC2)nc1-c1ccccc1)c1cccc(S(=O)(=O)N2CCCC2)c1`, the IC50 result in experiment [1] is “inactive”. Also, the IC50 in the experiment on GAPDH (setting [4]) is 18.9 µM; with GAPDH (setting [5]), 42 µM; at PEG-3 [2], 5.47 µM; with PEG-3 [3] (setting [4]) it was 5.9 µM; in the experiment on PEG-3 [3] (setting [5]) it was 5.05 µM; in the experiment on Rat fibroblasts (CREF) (mean of runs) it was 54 µM (inactive). The results for the IC50 with Rat fibroblasts (CREF) (setting [4]) and in the experiment on Rat fibroblasts (CREF) (setting [5]) were more than 100 µM and 8 µM, respectively.
Take `COc1cc(OC)c2cc(C(=O)N/N=C/c3ccccc3O)[nH]c2c1`: the IC50 entry in experiment [1] is “inactive”. Moreover, the IC50 was 75.1 µM with GAPDH (setting [4]); 51.5 µM with GAPDH (setting [5]); 4.44 µM at PEG-3 [2]; 4.95 µM in the experiment on PEG-3 [3] (setting [4]); 3.93 µM in the experiment with PEG-3 [3] (setting [5]); 28.8 µM with Rat fibroblasts (CREF) (mean of runs). The IC50 in the experiment on Rat fibroblasts (CREF) (setting [4]) turned out to be 24.8 µM; in the experiment with Rat fibroblasts (CREF) (setting [5]) it was 32.9 µM.
